Experimental data published in ChEMBL document CHEMBL1133324, “Suitably functionalised pyrimidines as potential antimycotic agents” (2000).
Converted amounts (≈) assume the structure as drawn.

Columns and labels:
Trichophyton benhamiae = assay: In vitro antifungal activity against human pathogenic fungi, Trichophyton mentagrophytes; assay type: functional, Arthroderma benhamiae
Sporothrix schenckii = assay: In vitro antifungal activity against human pathogenic fungi, Sporothrix schenck ii; assay type: functional
Cryptococcus neoformans = assay: In vitro antifungal activity against human pathogenic fungi, Cryptococcus neoformans; assay type: functional
Aspergillus fumigatus = assay: In vitro antifungal activity against human pathogenic fungi, Aspergillus fumigatus; assay type: functional
Candida albicans = assay: In vitro antifungal activity against human pathogenic fungi, Candida albicans; assay type: functional

| MIC (Trichophyton benhamiae) [µg/mL] | MIC (Sporothrix schenckii) [µg/mL] | MIC (Cryptococcus neoformans) [µg/mL] | MIC (Aspergillus fumigatus) [µg/mL] | MIC (Candida albicans) [µg/mL] | SMILES |
| --- | --- | --- | --- | --- | --- |
| > 100 | > 100 | > 100 | > 100 | > 100 | COc1ccc(-c2nc(SC)nc(Nc3ccc(Cl)cc3)c2C#N)cc1 |
| > 100 | > 100 | > 100 | > 100 | > 100 | CSc1nc(Nc2ccc(Cl)cc2)c(C#N)c(-c2cccc(F)c2)n1 |
| 1.56 (≈ 7.3 µM) | 12.5 (≈ 58.5 µM) | 1.56 (≈ 7.3 µM) | 6.25 (≈ 29.2 µM) | 25 (≈ 117 µM) | CCc1nc(Cl)c(C#N)c(SC)n1 |
| 0.19 (≈ 0.617 µM) | 50 (≈ 162 µM) | 6.25 (≈ 20.3 µM) | 0.78 (≈ 2.53 µM) | 50 (≈ 162 µM) | CSc1nc(SCc2ccccc2)nc(Cl)c1C#N |
| 0.005 (≈ 0.0216 µM) | 50 (≈ 216 µM) | 1.56 (≈ 6.73 µM) | 0.002 (≈ 0.00863 µM) | > 100 | CSc1nc(Cl)c(C#N)c(SC)n1 |
| > 100 | > 100 | > 100 | > 100 | > 100 | CSc1nc(S)c(C#N)c(-c2cccc(F)c2)n1 |

The remaining lines, values behind:

| SMILES | MIC (Trichophyton benhamiae) [µg/mL] | MIC (Sporothrix schenckii) [µg/mL] | MIC (Cryptococcus neoformans) [µg/mL] | MIC (Aspergillus fumigatus) [µg/mL] | MIC (Candida albicans) [µg/mL] |
| --- | --- | --- | --- | --- | --- |
| CSc1nc(Nc2ccc(Cl)cc2)c(C#N)c(-c2ccc(F)cc2)n1 | > 100 | > 100 | > 100 | > 100 | > 100 |
| COc1ccc(-c2nc(SC)nc(Cl)c2C#N)cc1 | 50 (≈ 171 µM) | > 100 | > 100 | 50 (≈ 171 µM) | > 100 |
| CSc1nc(Cl)c(C#N)c(-c2ccc(Cl)cc2)n1 | 0.19 (≈ 0.641 µM) | > 100 | > 100 | 0.04 (≈ 0.135 µM) | > 100 |
| CSc1nc(Cl)c(C#N)c(-c2ccc(F)cc2)n1 | 0.09 (≈ 0.322 µM) | > 100 | 50 (≈ 179 µM) | 0.04 (≈ 0.143 µM) | > 100 |
| C[C@@H]1[C@H](O)[C@@H](C)/C=C/C=C/C=C/C=C/C=C/C=C/C=C/[C@H](O[C@@H]2O[C@H](C)[C@@H](O)[C@H](N)[C@@H]2O)C[C@@H]2O[C@](O)(C[C@@H](O)C[C@@H](O)[C@H](O)CC[C@@H](O)C[C@@H](O)CC(=O)O[C@H]1C)C[C@H](O)[C@H]2C(=O)O [AMPHOTERICIN B] | 0.005 (≈ 0.00541 µM) |  |  | 0.002 (≈ 0.00216 µM) |  |
| CSc1nc(Cl)c(C#N)c(-c2cccc(F)c2)n1 | 0.09 (≈ 0.322 µM) | > 100 | 50 (≈ 179 µM) | 0.09 (≈ 0.322 µM) | > 100 |
| CSc1nc(-c2ccccc2)nc(Cl)c1C#N | 12.5 (≈ 47.8 µM) | > 100 | > 100 | 0.02 (≈ 0.0764 µM) | > 100 |
| CCSc1nc(Cl)c(C#N)c(-c2cccc(F)c2)n1 | 0.39 (≈ 1.33 µM) | 50 (≈ 170 µM) | 3.12 (≈ 10.6 µM) | 1.56 (≈ 5.31 µM) | > 100 |
| CC(=O)N1CCN(c2ccc(OC[C@H]3CO[C@](Cn4ccnc4)(c4ccc(Cl)cc4Cl)O3)cc2)CC1 [KETOCONAZOLE] | 0.1 (≈ 0.188 µM) | 25 (≈ 47 µM) | 0.1 (≈ 0.188 µM) | 0.7 (≈ 1.32 µM) | 0.3 (≈ 0.565 µM) |
| CSc1nc(Cl)c(C#N)c(-c2cccc(Cl)c2)n1 | 0.39 (≈ 1.32 µM) | > 100 | 1.56 (≈ 5.27 µM) | 0.09 (≈ 0.304 µM) | > 100 |
| CSc1ncnc(Cl)c1C#N | 0.39 (≈ 2.1 µM) | 6.25 (≈ 33.7 µM) | 1.56 (≈ 8.4 µM) | 0.39 (≈ 2.1 µM) | 25 (≈ 135 µM) |
